Assay results reported in patent US10493077B2, “Fused imidazo-piperidine JAK inhibitor compound” (THERAVANCE BIOPHARMA R&D IP, LLC, priority 2017, dated 2019).
Like-named read-outs stand apart in the source and are kept apart here.

Experiments:
[1] = test system: IL-2/anti-CD3 stimulated IFNγ in human PBMCs; assay: Cellular JAK potency assay: inhibition of IL-2/anti-CD3 stimulated IFNγ in human PBMCs; format: cell-based; conditions: PBMC, 24 h stimulation, read-out: pIC50, inhibition of IL-2/anti-CD3 stimulated IFNγ (converted)
Description: The potency of the test compound for inhibition of interleukin-2 (IL-2)/anti-CD3 stimulated interferon gamma (IFNγ) was measured in human peripheral blood mononuclear cells (PBMCs) isolated from human whole blood (Stanford Blood Center). Because IL-2 signals through JAK, this assay provides a measure of JAK cellular potency.
(1) Human peripheral blood mononuclear cells (PBMC) were isolated from human whole blood of healthy donors using a ficoll gradient. Cells were cultured in a 37° C., 5% CO2 humidified incubator in RPMI (Life Technologies) supplemented with 10% Heat Inactivated Fetal Bovine Serum (FBS, Life Technologies), 2 mM Glutamax (Life Technologies), 25 mM HEPES (Life Technologies) and 1× Pen/Strep (Life Technologies). Cells were seeded at 200,000 cells/well in media (50 μL) and cultured for 1 h. The compound was serially diluted in DMSO and then diluted another 500-fold (to a 2× final assay concentration) in media. […]
(2) After cytokine stimulation, cells were centrifuged at 500 g for 5 min and supernatants removed and frozen at −80° C. To determine the inhibitory potency of test compounds in response to IL-2/anti-CD3, supernatant IFNγ concentrations were measured via ELISA (R&D Systems). IC50 values were determined from analysis of the inhibition curves of concentration of IFNγ vs compound concentration. Data are expressed as pIC50 (negative decadic logarithm IC50) values.

[2] = target: T1, CDK9 (Homo sapiens, UniProt P50750); assay: Kinome screen, CDK9; format: binding; conditions: screened at 1 μM
T1 construct: made in house; host or cells: T7 phage in E. coli (BL21-derived) or HEK-293
Description: (§1) Kinase-tagged T7 phage strains were grown in parallel in 24-well blocks in an E. coli host derived from the BL21 strain. E. coli were grown to log-phase and infected with T7 phage from a frozen stock (multiplicity of infection=0.4) and incubated with shaking at 32° C. until lysis (90-150 minutes). The lysates were centrifuged (6,000×g) and filtered (0.2 μm) to remove cell debris. The remaining kinases were produced in HEK-293 cells and subsequently tagged with DNA for qPCR detection.
(§2) Streptavidin-coated magnetic beads were treated with biotinylated small molecule ligands for 30 minutes at room temperature to generate affinity resins for kinase assays. The liganded beads were blocked with excess biotin and washed with blocking buffer (SeaBlock (Pierce), 1% BSA, 0.05% Tween 20, 1 mM DTT) to remove unbound ligand and to reduce non-specific phage binding. […] Test compounds were prepared as 40× stocks in 100% DMSO and directly diluted into the assay. All reactions were performed in polypropylene 384-well plates in a final volume of 0.04 ml. […] The beads were then re-suspended in elution buffer (1×PBS, 0.05% Tween 20, 0.5 μM non-biotinylated affinity ligand) and incubated at room temperature with shaking for 30 minutes. The kinase concentration in the eluates was measured by qPCR.

[3] = Ocular pharmacokinetics in rabbit eyes; format: in vivo; conditions: for half-life: rabbit, vitreous, solution formulation in 2% 2-hydroxypropyl-β-cyclodextrin, intravitreal 50 μg/eye
Description: The objective of this assay was to determine the pharmacokinetics of a test compound in rabbit ocular tissues.
1-(2-(6-(2-ethyl-5-fluoro-4-hydroxyphenyl)-4-fluoro-1H-indazol-3-yl)-1,4,6,7-tetrahydro-5H-imidazo[4,5-c]pyridin-5-yl)-2-morpholinoethan-1-one (1), prepared in Example 2, was dissolved in 2% 2-hydroxypropyl-β-cyclodextrin to attain a target concentration of 1 mg/mL. Bilateral intravitreal injection (50 μL/eye) of the solution of test compound was administered to New Zealand white rabbits (50 μg/eye). The test compound concentration was measured in ocular tissues: vitreous, aqueous, retina/choroid and iris-ciliary body at pre-determined time points post injection (30 min, 4 h, 1 d, 3 d, 7 d, 14 d). Two rabbits (four eyes) were dosed for each time point.
A suspension formulation was prepared by combining compound 1 of Example 2 (Form 1), with 0.5% hydroxypropyl methylcellulose (HPMC E5)+0.02% Tween 80 in normal saline to attain a target concentration of 5 mg/mL, 20 mg/mL and 80 mg/mL for the 0.25 mg/eye, 1 mg/eye and 4 mg/eye doses respectively. Bilateral intravitreal injection (50 μL/eye) of the suspension of test compound was administered to New Zealand white rabbits. The test compound concentration was measured in ocular tissues as in the solution formulation assay at 30 min, 4 h, 24 h, 72 h, 7 d, 14 d, 28 d, 56 d and 84 d post injection. For the 4 mg/eye dose group, an additional time point at 168 d post injection was also collected. […] The clearance rate is consistent with the solubility of compound 1 in the vehicle and the ocular pharmacokinetic behavior in the solution formulation. […] Therefore, it is plausible that drug exposure is longer than that observed in this study. The drug concentration in plasma was measured and found to be at least 3 orders of magnitude lower than the concentration in vitreous tissue at all three concentrations.
A suspension formulation was prepared by combining compound 1 of Example 5 (Form 2), with 0.5% hydroxypropyl methylcellulose (HPMC E5)+0.02% Tween 80 in normal saline to attain a target concentration of […], 1 mg/mL, 2 mg/mL and 20 mg/mL for the 0.02 mg/eye, 0.05 mg/eye, 0.1 mg/eye and 1 mg/eye doses respectively. Bilateral intravitreal injection (50 μL/eye) of the suspension of test compound was administered to Dutch Belted rabbits. The test compound concentration was measured in vitreous humor, aqueous humor, iris-ciliary body, retina, retinal pigment epithelial/choroidal cells and plasma at 30 min, 7 d, 14 d, 28 d, 42 d and 56 d post injection. […] Therefore, it is plausible that drug exposure is longer than that observed in this study. The drug concentration in plasma was measured and found to be at least 3 orders of magnitude lower than the concentration in vitreous tissue at all three concentrations. The 3 orders of magnitude correspond to a logarithmic scale (ie 1000 on a non-logarithmic scale).

[4] = target: T2, EPHB6 (Homo sapiens, UniProt O15197); assay: Kinome screen, EPHB6; format: binding; conditions: screened at 1 μM
T2 construct: made in house; host or cells: T7 phage in E. coli (BL21-derived) or HEK-293
Description: as §1, §2

T2 sequence (O15197 32-1021): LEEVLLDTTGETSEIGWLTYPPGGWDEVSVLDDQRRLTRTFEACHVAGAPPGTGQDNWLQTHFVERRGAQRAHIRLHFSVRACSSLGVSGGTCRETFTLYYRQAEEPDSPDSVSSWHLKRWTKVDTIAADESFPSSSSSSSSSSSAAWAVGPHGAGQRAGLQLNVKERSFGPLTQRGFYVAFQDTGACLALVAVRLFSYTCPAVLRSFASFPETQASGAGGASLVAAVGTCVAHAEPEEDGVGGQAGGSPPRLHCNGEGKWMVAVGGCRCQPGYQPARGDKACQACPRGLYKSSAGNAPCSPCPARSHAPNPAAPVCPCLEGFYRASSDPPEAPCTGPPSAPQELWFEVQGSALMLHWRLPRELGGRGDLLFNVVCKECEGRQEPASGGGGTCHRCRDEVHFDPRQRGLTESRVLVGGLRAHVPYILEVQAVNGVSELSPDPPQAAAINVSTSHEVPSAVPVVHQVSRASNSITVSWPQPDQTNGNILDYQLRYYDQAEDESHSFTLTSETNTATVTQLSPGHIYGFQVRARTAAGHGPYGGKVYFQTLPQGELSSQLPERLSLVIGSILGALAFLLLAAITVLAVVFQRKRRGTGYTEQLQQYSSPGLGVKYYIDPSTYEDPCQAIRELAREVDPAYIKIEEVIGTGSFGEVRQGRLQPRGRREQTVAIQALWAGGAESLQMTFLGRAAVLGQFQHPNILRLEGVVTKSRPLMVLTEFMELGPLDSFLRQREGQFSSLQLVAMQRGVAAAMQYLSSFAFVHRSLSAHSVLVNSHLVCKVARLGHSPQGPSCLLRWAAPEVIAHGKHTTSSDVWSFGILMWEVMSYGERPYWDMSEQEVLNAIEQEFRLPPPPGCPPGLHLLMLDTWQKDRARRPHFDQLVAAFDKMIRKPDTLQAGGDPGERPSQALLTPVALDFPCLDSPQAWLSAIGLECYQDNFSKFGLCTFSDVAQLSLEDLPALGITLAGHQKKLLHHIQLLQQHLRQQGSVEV
T1 sequence (P50750 whole entry): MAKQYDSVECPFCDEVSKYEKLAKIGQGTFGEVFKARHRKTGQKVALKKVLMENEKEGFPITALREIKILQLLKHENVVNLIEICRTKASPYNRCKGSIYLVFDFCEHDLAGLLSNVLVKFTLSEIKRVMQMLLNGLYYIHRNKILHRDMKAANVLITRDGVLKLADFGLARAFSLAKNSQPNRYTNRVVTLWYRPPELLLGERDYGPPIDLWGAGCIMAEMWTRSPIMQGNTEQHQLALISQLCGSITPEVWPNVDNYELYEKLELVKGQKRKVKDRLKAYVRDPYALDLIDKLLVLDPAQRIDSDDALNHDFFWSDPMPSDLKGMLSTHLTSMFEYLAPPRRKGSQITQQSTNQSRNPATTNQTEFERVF

**Q.** With `CCc1cc(O)c(F)cc1-c1cc(F)c2c(-c3nc4c([nH]3)CCN(C(=O)CN3CCOCC3)C4)n[nH]c2c1` [Compound 1, 1-(2-(6-(2-ethyl-5-fluoro-4-hydroxyphenyl)-4-fluoro-1H-indazol-3-yl)-1,4,6,7-tetrahydro-5H-imidazo[4,5-c]pyridin-5-yl)-2-morpholinoethan-1-one] as the molecule, how does the IC50 [1] read?
**A.** Its IC50 is ~0.2 µM.

**Q.** What about the inhibition at 1 µM [2] of the same molecule?
**A.** The inhibition at 1 µM was 9%.

**Q.** What about the “ocular exposure at 24 weeks” value ([3]; Form 1 suspension, intravitreal 4 mg/eye, New Zealand white rabbits) of the same molecule?
**A.** Its value is “Sustained exposure”.

**Q.** What about the “drug concentration in plasma lower than concentration in vitreous tissue” value ([3]; Form 1 suspension, intravitreal 0.25, 1 and 4 mg/eye, New Zealand white rabbits) of the same molecule?
**A.** Its value is “at least 3 orders of magnitude”.

**Q.** And the “ocular exposure at 12 weeks (84 d)” value ([3]; Form 1 suspension, intravitreal, all doses (0.25, 1, 4 mg/eye), New Zealand white rabbits)?
**A.** Its value is “Robust sustained exposure”.

**Q.** And the “drug concentration in plasma lower than concentration in vitreous tissue” value ([3]; Form 2 suspension, intravitreal 0.02, 0.05, 0.1 and 1 mg/eye, Dutch Belted rabbits)?
**A.** Its value is “at least 3 orders of magnitude”.

**Q.** And the “change of drug concentration in vitreous tissue from 30 min to last time point tested” value ([3]; Form 2 suspension, intravitreal 0.02-1 mg/eye, Dutch Belted rabbits, last time point 28-56 d)?
**A.** The value was “very gradual decrease”.

**Q.** What about the half-life ([3]; New Zealand white, 50 μg/eye, New Zealand white rabbits, read-out: terminal half-life, vitreous tissue (converted)) of the same molecule?
**A.** The half-life was ~48 h.

**Q.** What about the “concentration in plasma versus vitreous tissue” value ([3]; rabbit eyes, single intravitreal injection (summary of Assay 7)) of the same molecule?
**A.** Its value is “at least three orders of magnitude lower”.

**Q.** What about the half-life ([3]; New Zealand white rabbits, read-out: half-life of initial decrease in concentration, vitreous tissue (converted)) of the same molecule?
**A.** Its half-life is ~9 h.

**Q.** What about the inhibition at 1 µM [4] of the same molecule?
**A.** Its inhibition at 1 µM is 88%.
